Here are results for 1 molecule from patent US20050010123A1, “Process for measuring QT intervals and constructing composite histograms to compare groups” (priority 2003, published 2005).

The data set in a line: Beat-to-beat QTc interval histograms from 24-hour ambulatory ECG (Holter) recordings. Format: in vivo, patients.

Description: An example of this type of device is a Reynolds Medical Tracker II (Reynolds Medical, Hertford UK) recorder. […] For QT interval analysis, the sample rate can be between 128 and 2000 samples per seconds. The preferred embodiment is the use of a sample rate of at least of at least 1000 samples per second. These digital recorders must also be compatible with a Holter playback system that can produce beat-to beat interval measurements. An example of this type of device is the Reynolds Medical LifeCard CF recorder (Reynolds Medical, Hertford, UK). An example of the compatible Holter playback system is the Reynolds Medical Pathfinder 700 series. […]
Using the digitized file of the electrocardiogram, a QT interval analysis may be accomplished in the following manner: The onset of a Q-wave (Qb) may be defined and a cursor may be placed at this point. […] The data from the digital file may then be replayed at 60-times normal time, while the cursors on the Qb and Te points may be monitored for stability. […] The QT intervals may be measured for the entire AECG recording on a beat-to-beat basis. […]
The peak of an R-wave may be detected and a third cursor may be placed (Rp). […]
In the examples described herein QTc was calculated by removing a time-series of the QT and preceding R--R intervals to a high-speed computer with both a fast processor and adequate disk storage space. […]

For `COc1cc(N)c(Cl)cc1C(=O)NC1CCN(CCCOc2ccc(F)cc2)CC1OC` (centres unmarked) [cisapride, Cisapride], where the note is “QTc interval histogram of a single patient taking cisapride (FIG. 3), 24 hour AECG”, the “mean QTc interval” value was 440 ms. Further, where the note is “composite curve of subjects on drug therapy (FIG. 4: subjects on cisapride), normal subjects 409 msec, ILQT 475 msec”, the “mean QTc” value was 430 ms.
